Like-named read-outs stand apart in the source and are kept apart here.
Experiments:
[1] = log P by HPLC on reversed-phase columns (EEC Directive 79/831 Annex V.A8); assay type: physicochemical
[2] = tested on: Lucilia cuprina larvae; assay: Lucilia cuprina test (LUCICU); assay type: in vivo; settings: 1152 h, read-out: activity (kill in %)
Procedure: (§1) Solvent: dimethyl sulphoxide
Vessels containing horse meat treated with the active ingredient preparation of the desired concentration are populated with about 20 Lucilia cuprina larvae.
(§2) After 48 days, the kill in % is determined.

[3] = tested on: Boophilus microplus; assay: Boophilus microplus test (BOOPMI injection); assay type: in vivo; settings: Rhipicephalus microplus, 168 h; 20 μg/animal, injection into the abdomen, after 7 days; read-out: activity in % (no fertile eggs laid)
Procedure: as §1
The active compound solution is injected into the abdomen (Boophilus microplus), and the animals are transferred into dishes and stored in a climate-controlled room.
The activity is assessed by […] of fertile eggs. 100% means that none of the ticks has laid any fertile eggs.

[4] = tested on: green peach aphid (Myzus persicae); assay: Myzus test (MYZUPE spray treatment); assay type: in vivo; settings: for pest or weed control at 500 g/ha / pest or weed control at 100 g/ha: read-out: activity in % (aphids killed)
[5] = tested on: larvae of the mustard beetle (Phaedon cochleariae); assay: Phaedon test (PHAECO spray treatment); settings: Phaedon cochleariae, 168 h; for pest or weed control at 100 g/ha / pest or weed control at 500 g/ha: read-out: activity in % (beetle larvae killed)
[6] = tested on: caterpillars of the armyworm (Spodoptera frugiperda); assay: Spodoptera frugiperda test (SPODFR spray treatment); assay type: in vivo; settings: Spodoptera frugiperda, 168 h; for pest or weed control at 100 g/ha / pest or weed control at 500 g/ha: read-out: activity in % (caterpillars killed)
[7] = tested on: adult Musca domestica; assay: Musca domestica test (MUSCDO); assay type: in vivo; settings: 1152 h, 20 ppm, after 48 days, read-out: activity (kill in %)
Procedure: as §1
Vessels containing a sponge treated with the active compound preparation of the desired concentration are populated with adult Musca domestica.
as §2

[8] = reversed-phase C18 HPLC column, pH 2.7, HPLC reversed-phase C18, acidic range pH 2.7 (HCOOH), only or first value of the cell, read-out: log P
[9] = application rate 500 g/ha, after 7 days
[10] = Myzus persicae, 144 h, application rate 100 g/ha, after 6 days
[11] = application rate 100 g/ha, after 7 days

Compound	chromatographic logP ([1]; pH 2.7, log P)	pest or weed control at 100 g/ha [5]	pest or weed control at 100 g/ha [6]	chromatographic logP [1, 8]	pest or weed control at 100 g/ha ([4]; Myzus persicae, 144 h)	also measured
Cc1cc(Cl)cc(C(=O)N[C@@H]2CCOC2=O)c1NC(=O)c1cc(Cn2nnc(C(F)(F)C(F)(F)F)n2)nn1-c1ncccc1Cl [Example 43]	3.21	100%	100%			log P (second value after the slash) ([1]; pH 2.7): 2.92; pest or weed control at 100 ppm [2]: 100%; pest or weed control at 0.02 mg [3]: 100%; pest or weed control at 500 g/ha ([4]; Myzus persicae, 144 h): 100%
Cc1cc(C#N)cc(C(=O)NC2CCSC2=O)c1NC(=O)c1cc(Cn2nnc(C(F)(F)C(F)(F)F)n2)nn1-c1ncccc1Cl (centres unmarked) [Example 40]				3.25		pest or weed control at 100 ppm ([2]; 100 ppm, after 48 days): 100%; pest or weed control at 0.02 mg [3]: 100%; pest or weed control at 500 g/ha [5]: 100%; pest or weed control at 500 g/ha [6, 9]: 100%
Cc1cc(Cl)cc(C(=O)NC2COC2)c1NC(=O)c1cc(Cn2cc(Br)c(C(F)(F)F)n2)nn1-c1ncccc1Cl [Example 24]	3.2	100%	100%			pest or weed control at 100 ppm [2]: 100%; pest or weed control at 0.02 mg [3]: 100%
Cc1cc(C#N)cc(C(=O)NC2CCN(Cc3ccccc3)C2)c1NC(=O)c1cc(Cn2nnc(C(F)(F)C(F)(F)F)n2)nn1-c1ncccc1Cl (centres unmarked) [Example 32]				2.14		pest or weed control at 100 g/ha [4, 10]: 90%; pest or weed control at 500 g/ha [5]: 100%; pest or weed control at 500 g/ha [6, 9]: 100%
Cc1cc(F)cc(C(=O)NC2COC2)c1NC(=O)c1cc(Cn2nnc(C(F)(F)F)n2)nn1-c1ncccc1Cl [Example 4]	2.53	100%	100%		100%	
Cc1cc(C)c(NC(=O)c2cc(Cn3nnc(C(F)(F)F)n3)nn2-c2ncccc2Cl)c(C(=O)NC2COC2)c1 [Example 7]	2.67	100%	100%		90%	
Cc1cc(Cl)cc(C(=O)NCc2ncc(F)cc2F)c1NC(=O)c1cc(Cn2nnc(C(F)(F)F)n2)nn1-c1ncccc1Cl [Example 231]	3.5	100%	100%		90%	
Cc1cc(Cl)cc(C(=O)NCc2ccc(N)cc2)c1NC(=O)c1cc(Cn2nnc(C(F)(F)F)n2)nn1-c1ncccc1Cl [Example 140]	2.55	100%	100%		100%	
Cc1cc(C#N)cc(C(=O)NC2CCN(C)C2=O)c1NC(=O)c1cc(Cn2nnc(C(F)(F)F)n2)nn1-c1ncccc1Cl (centres unmarked) [Example 49]	2.39	100%	100%		100%	log P (second value after the slash) ([1]; pH 2.7): 2.19
Cc1cc(C#N)cc(C(=O)NC2CSC2)c1NC(=O)c1cc(Cn2nnc(C(F)(F)F)n2)nn1-c1ncccc1Cl [Example 15]	3.06	100%	100%		100%	
Cc1cc(Cl)cc(C(=O)NC2CCN(Cc3ccccc3)C2)c1NC(=O)c1cc(Cn2nnc(C(F)(F)C(F)(F)F)n2)nn1-c1ncccc1Cl (centres unmarked) [Example 33]				2.3		pest or weed control at 100 ppm ([2]; 100 ppm, after 48 days): 100%; pest or weed control at 0.02 mg [3]: 100%; pest or weed control at 500 g/ha [5]: 100%; pest or weed control at 500 g/ha [6, 9]: 100%
Cc1cc(C#N)cc(C(=O)NC2CCS(=O)(=O)C2)c1NC(=O)c1cc(Cn2nnc(C(F)(F)F)n2)nn1-c1c(Cl)cccc1Cl (centres unmarked) [Example 54]		100%		2.95		pest or weed control at 100 g/ha [4, 10]: 80%; pest or weed control at 100 g/ha [6, 11]: 100%
Cc1cc(C#N)cc(C(=O)NC2CCSC2=O)c1NC(=O)c1cc(Cn2nnc(C(F)(F)F)n2)nn1-c1ncccc1Cl (centres unmarked) [Example 39]	2.89					log P (second value after the slash) ([1]; pH 2.7): 2.57; pest or weed control at 500 g/ha ([4]; Myzus persicae, 144 h): 100%; pest or weed control at 500 g/ha [5]: 100%; pest or weed control at 500 g/ha [6]: 100%
Cc1cc(Cl)cc(C(=O)NCc2ccc(OC(F)(F)F)cc2)c1NC(=O)c1cc(Cn2nnc(C(F)F)n2)nn1-c1ncccc1Cl [Example 151]		100%		3.78		pest or weed control at 100 g/ha [4, 10]: 100%; pest or weed control at 100 g/ha [6, 11]: 100%
Cc1cc(I)cc(C(=O)NC2COC2)c1NC(=O)c1cc(Cn2nnc(C(F)(F)F)n2)nn1-c1ncccc1Cl [Example 6]	3	100%	100%		80%	
Cc1cc(C#N)cc(C(=O)NC2COC2)c1NC(=O)c1cc(Cn2nnc(C(F)(F)F)n2)nn1-c1c(Cl)cccc1Cl [Example 28]		100%		3.05		pest or weed control at 100 g/ha [4, 10]: 100%; pest or weed control at 100 g/ha [6, 11]: 100%
Cc1cc(Cl)cc(C(=O)NC2CCN(C)C2=O)c1NC(=O)c1cc(Cn2nnc(C(F)(F)F)n2)nn1-c1ncccc1Cl (centres unmarked) [Example 50]	2.66	100%	100%		100%	log P (second value after the slash) ([1]; pH 2.7): 2.36
Cc1cc(Br)cc(C(=O)NC2COC2)c1NC(=O)c1cc(Cn2nnc(C(F)(F)F)n2)nn1-c1ncccc1Cl [Example 3]	2.87	100%	100%		100%	
Cc1cc(C#N)cc(C(=O)NC2COC2)c1NC(=O)c1cc(Cn2nnc(C(F)(F)F)n2)nn1-c1ncccc1Cl [Example 20]		100%	100%			log P ([1]; pH 2.7): 2.51; activity in % (aphids killed) ([4]; application rate 100 g/ha, after 6 days): 90%
Cc1cc(C#N)cc(C(=O)NCc2ccccc2)c1NC(=O)c1cc(Cn2nnc(C(F)(F)F)n2)nn1-c1ncccc1Cl [Example 70]	3.38	100%	100%		100%	
Cc1cc(C#N)cc(C(=O)NC2COC2)c1NC(=O)c1cc(Cn2nnc(C(F)(F)C(F)(F)F)n2)nn1-c1ncccc1Cl [Example 14]	2.87	100%	100%		90%	
Cc1cc(C#N)cc(C(=O)NCc2ccc(S(F)(F)(F)(F)F)cc2)c1NC(=O)c1cc(Cn2nnnc2C(F)(F)F)nn1-c1ncccc1Cl [Example 69]		100%		3.68		pest or weed control at 100 ppm ([2]; 100 ppm, after 48 days): 100%; pest or weed control at 0.02 mg [3]: 100%; pest or weed control at 20 ppm [7]: 80%; pest or weed control at 100 g/ha [6, 11]: 100%
Cc1cc(Cl)cc(C(=O)NC2COC2)c1NC(=O)c1cc(Cn2nnc(C(F)(F)F)n2)nn1-c1ncccc1Cl [Example 2]	2.8	100%	100%		100%	inhibition at 100 g/ha ([4]; Myzus persicae, 144 h, 100 g/ha, 6 d, comparison with prior art): 100%; inhibition at 20 g/ha ([5]; read-out: % Activity PHAECO): 100%; inhibition at 20 g/ha ([6]; 20 g/ha, 7 d, comparison with prior art): 100%
O=C(NC1COC1)c1cc(Cl)cc(Cl)c1NC(=O)c1cc(Cn2nnc(C(F)(F)C(F)(F)F)n2)nn1-c1ncccc1Cl [Example 10]	3.18	100%	100%			pest or weed control at 500 g/ha ([4]; Myzus persicae, 144 h): 100%
Cc1cc(Cl)cc(C(=O)NC(C)c2ccccc2F)c1NC(=O)c1cc(Cn2nnc(C(F)(F)F)n2)nn1-c1ncccc1Cl (centres unmarked) [Example 87]	3.98	100%	100%		80%	
Cc1cc(Cl)cc(C(=O)Nc2ccccc2)c1NC(=O)c1cc(Cn2nnc(C(F)(F)F)n2)nn1-c1ncccc1Cl [Example 72]	3.81	100%	100%		80%	
Cc1cc(Cl)cc(C(=O)NC2CCN(Cc3ccccc3)C2)c1NC(=O)c1cc(Cn2nnc(C(F)(F)F)n2)nn1-c1ncccc1Cl (centres unmarked) [Example 31]				2.03		pest or weed control at 100 ppm ([2]; 100 ppm, after 48 days): 100%; pest or weed control at 0.02 mg [3]: 100%; pest or weed control at 500 g/ha ([4]; Myzus persicae, 144 h, application rate 500 g/ha, after 6 days): 100%; pest or weed control at 500 g/ha [5]: 100%; pest or weed control at 500 g/ha [6, 9]: 100%
Cc1cc(C#N)cc(C(=O)NCc2ccccc2OC(F)(F)F)c1NC(=O)c1cc(Cn2nnc(C(F)(F)F)n2)nn1-c1ncccc1Cl [Example 153]		100%		3.89		pest or weed control at 100 g/ha [4, 10]: 90%; pest or weed control at 100 g/ha [6, 11]: 100%
